Experimental data reported in EP3478687B1 (Daewoong Pharmaceutical Co., Ltd., priority 2016, dated 2018).

Assays:
[1] = molecular target: T1, Recombinant purified human JAK3 (Homo sapiens, UniProt P52333); test: JAK3 kinase inhibitory activity, ADP-Glo kinase assay (Promega V9441); format: biochemical; conditions: ATP 5 uM, 4 ng JAK3 per reaction, 1 hour 30 °C, chemiluminescence
T1 construct: purchased Promega V9441
T1 sequence (P52333 1-1124): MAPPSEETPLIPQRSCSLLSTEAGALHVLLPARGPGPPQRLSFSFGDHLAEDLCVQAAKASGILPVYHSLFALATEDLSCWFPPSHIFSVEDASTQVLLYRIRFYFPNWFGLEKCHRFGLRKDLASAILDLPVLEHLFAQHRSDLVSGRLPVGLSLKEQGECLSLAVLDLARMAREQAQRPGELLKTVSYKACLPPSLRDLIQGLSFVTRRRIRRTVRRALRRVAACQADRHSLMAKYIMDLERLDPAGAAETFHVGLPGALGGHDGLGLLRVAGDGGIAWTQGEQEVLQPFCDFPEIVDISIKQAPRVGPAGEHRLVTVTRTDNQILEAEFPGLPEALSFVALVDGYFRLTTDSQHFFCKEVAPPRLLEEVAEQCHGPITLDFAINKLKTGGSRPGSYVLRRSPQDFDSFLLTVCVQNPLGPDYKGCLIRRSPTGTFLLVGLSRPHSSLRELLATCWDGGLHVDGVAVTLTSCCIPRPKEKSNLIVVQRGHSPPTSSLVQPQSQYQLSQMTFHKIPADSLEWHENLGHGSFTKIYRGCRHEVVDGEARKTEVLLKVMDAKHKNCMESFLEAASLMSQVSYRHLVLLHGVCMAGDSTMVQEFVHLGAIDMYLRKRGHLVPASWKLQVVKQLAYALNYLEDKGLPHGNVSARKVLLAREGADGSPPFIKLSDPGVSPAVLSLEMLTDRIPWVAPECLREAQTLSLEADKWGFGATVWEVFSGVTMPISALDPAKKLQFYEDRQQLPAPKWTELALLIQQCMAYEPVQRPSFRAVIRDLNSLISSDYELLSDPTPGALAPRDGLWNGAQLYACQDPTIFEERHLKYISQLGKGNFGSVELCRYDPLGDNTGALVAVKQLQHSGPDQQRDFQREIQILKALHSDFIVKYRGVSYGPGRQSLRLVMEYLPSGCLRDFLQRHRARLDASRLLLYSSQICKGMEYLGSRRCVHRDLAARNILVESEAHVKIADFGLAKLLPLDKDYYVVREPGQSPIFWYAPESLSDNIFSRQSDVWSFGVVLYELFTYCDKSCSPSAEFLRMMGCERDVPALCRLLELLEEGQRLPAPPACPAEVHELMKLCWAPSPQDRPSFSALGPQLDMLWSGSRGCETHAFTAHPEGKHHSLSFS
In short: (§1)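 Recombinant human kinases in Tris pH 7.5 buffer with MgCl2, BSA and DTT (MnCl2 added for BTK), 4 ng JAK3 or 8 ng BTK per reaction. Poly(Glu4,Tyr1) 0.2 µg/µL with 5 µM (JAK3) or 10 µM (BTK) ATP, 1% DMSO, 1 h at 30 °C. ADP-Glo luminescence used to derive IC50.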

[2] = molecular target: T2, Recombinant purified human BTK (Homo sapiens, UniProt Q06187); test: BTK kinase inhibitory activity, ADP-Glo kinase assay (Promega V9071); format: biochemical; conditions: for IC50: ATP 10 uM, 8 ng BTK per reaction, 1 hour 30 °C, chemiluminescence
T2 construct: purchased Promega V9071
T2 sequence (Q06187 whole entry): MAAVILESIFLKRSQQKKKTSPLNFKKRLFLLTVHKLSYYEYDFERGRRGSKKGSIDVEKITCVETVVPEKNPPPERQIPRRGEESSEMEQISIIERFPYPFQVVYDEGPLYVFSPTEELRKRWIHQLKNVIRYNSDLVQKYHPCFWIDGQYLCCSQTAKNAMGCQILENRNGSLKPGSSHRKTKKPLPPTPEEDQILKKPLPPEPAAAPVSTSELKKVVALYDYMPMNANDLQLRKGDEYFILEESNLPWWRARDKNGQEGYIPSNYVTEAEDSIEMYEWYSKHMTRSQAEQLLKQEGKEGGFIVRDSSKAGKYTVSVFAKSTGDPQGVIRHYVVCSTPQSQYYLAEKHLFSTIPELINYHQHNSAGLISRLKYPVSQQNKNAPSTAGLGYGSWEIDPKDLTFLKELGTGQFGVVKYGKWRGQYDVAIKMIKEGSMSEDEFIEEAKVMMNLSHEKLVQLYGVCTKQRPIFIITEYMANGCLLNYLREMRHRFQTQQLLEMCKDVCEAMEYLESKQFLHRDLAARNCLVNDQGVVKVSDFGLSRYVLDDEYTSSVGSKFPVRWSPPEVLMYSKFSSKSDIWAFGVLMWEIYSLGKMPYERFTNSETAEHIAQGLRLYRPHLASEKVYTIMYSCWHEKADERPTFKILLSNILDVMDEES
In short: as §1

An IC50 [1] of 0.7 nM and an IC50 [2] of 12.1 nM were found for C=CC(=O)N1CCC[C@@H](Nc2nc(Nc3ccc(C(=O)N4CCOCC4)cc3)nc3[nH]cc(Cl)c23)C1 [Example 68, (R)-1-(3-((5-chloro-2-((4-(morpholine-4-carbonyl)phenyl)amino)-7H-pyrrolo[2,3-d]pyrimidin-4-yl)amino)piperidin-1-yl)prop-2-en-1-one] in this work.

An IC50 [1] of 2 nM and an IC50 [2] of 4.5 nM were found for C=CC(=O)N1CCC[C@@H](Oc2nc(Nc3ccc(N4CCOCC4)cc3)nc3[nH]ccc23)C1 [Example 152, (R)-1-(3-((2-((4-morpholinophenyl)amino)-7H-pyrrolo[2,3-d]pyrimidin-4-yl)oay)piperidin-1-yl)prop-2-en-1-one] in this work.

An IC50 [1] of 0.6 nM and an IC50 [2] of 1.4 nM were found for CCn1cc(Nc2nc(O[C@@H]3CCCN(C(=O)/C(C#N)=C/C4CC4)C3)c3c(C#N)c[nH]c3n2)cn1 [Example 157, (R,E)-4-((1-(2-cyano-3-cyclopropylacryloyl)piperidin-3-yl)oxy)-2-((1-ethyl-1H-pyrazol-4-yl)amino)-7H-pyrrolo[2,3-d]pyrimidine-5-carbonitrile] in this work.

An IC50 [1] of 0.1 nM and an IC50 [2] of 1.9 nM were found for C=CC(=O)N1CCC[C@@H](Nc2nc(Nc3cnn(CC(F)F)c3)nc3[nH]cc(Cl)c23)C1 [Example 39, (R)-1-(3-(5-chloro-2-(1-(2,2-difluoroethyl)-1H-pyrazol-4-ylamino)-7H-pyrrolo[2,3-d]pyrimidin-4-ylamino)piperidin-1-yl)prop-2-en-1-one] in this work.

An IC50 [1] of 5.6 nM and an IC50 [2] of 1.2 nM were found for CCn1cc(Nc2nc(N[C@@H]3CCCN(C(=O)/C(C#N)=C/C4CC4)C3)c3c(Cl)n[nH]c3n2)cn1 [Example 166] in this work.

An IC50 [1] of 0.7 nM and an IC50 [2] of 9.5 nM were found for C=CC(=O)N1CCC[C@@H](Nc2nc(Nc3cnn(Cc4cccc(OC)c4)c3)nc3[nH]ccc23)C1 [Example 20, (R)-1-(3-(2-(1-(3-methoxybenzyl)-1H-pyrazol-4-ylamino)-7H-pyrrolo[2,3-d]pyrimidin-4-ylamino)piperidin-1-yl)prop-2-en-1-one] in this work.

An IC50 [1] of 0.8 nM and an IC50 [2] of 1.8 nM were found for C=CC(=O)N1CCC[C@@H](Nc2nc(Nc3cnn(CCC)c3)nc3[nH]nc(Cl)c23)C1 [Example 51, (R)-1-(3-(3-chloro-6-(1-propyl-lH-pyrazol-4-ylamino)-1H-pyrazolo [3,4-d]pyrimidin-4-ylamino)piperidin-1-yl)prop-2-en-1-one] in this work.

An IC50 [1] of 38.5 nM and an IC50 [2] of 306 nM were found for CN1CCN(c2ccc(Nc3nc(N[C@@H]4CCCN(C(=O)C#CC5CC5)C4)c4c(Cl)c[nH]c4n3)cc2)CC1 [Example 141, (R)-1-(3-((5-chloro-2-((4-(4-methylpiperazin-1-yl)phenyl)amino)-7H-pyrrolo [2,3-d]pyrimidin-4-yl)amino)piperidin-1-yl)-3-cyclopropylprop-2-yn-1-one] in this work.

An IC50 [1] of 39.2 nM and an inhibition at 0.1 µM ([2]; @100nM compound) of 10.3% were found for C=CC(=O)Nc1cccc(Nc2nc(N[C@@H]3CCCN(C(=O)CC#N)C3)c3cc[nH]c3n2)c1 [Example 26, (R)-N-(3-(4-(1-(2-cyanoacetyl)piperidin-3-ylamino)-7H-pyrrolo[2,3-d]pyrimidin-2-ylamino)phenyl)acrylamide] in this work.

An IC50 [1] of 0.2 nM and an IC50 [2] of 1.1 nM were found for C=CC(=O)N1CCC[C@@H](Nc2nc(Nc3cnn(CC)c3)nc3[nH]cc(C#N)c23)C1 [Example 88, (R)-4-((1-acryloylpiperidin-3-yl)amino)-2-((1-ethyl-1H-pyrazol-4-yl)amino)-7H-pyrrolo [2,3-d] pyrim idine-5-carbonitrile] in this work.

An IC50 [1] of 4.9 nM and an IC50 [2] of 1.6 nM were found for C=CC(=O)N1CCC[C@@H](Nc2nc(Nc3cnn(CC)c3)nc3[nH]ncc23)C1 [Example 33, (R)-1-(3-(6-(1-ethyl-1H-pyrazol-4-ylamino)-1H-pyrazolo[3,4-d]pyrimidin-4-ylamino)piperidin-1-yl)prop-2-en-1-one] in this work.

An IC50 [1] of 0.3 nM and an IC50 [2] of 0.9 nM were found for C=CC(=O)N1CCC[C@@H](Nc2nc(Nc3cnn(CC)c3)nc3[nH]cc(F)c23)C1 [Example 82, (R)-1-(3-((2-((1-ethyl-1H-pyrazol-4-yl)amino)-5-fluoro-7H-pyrrolo[2,3-d]pyrimidin-4-yl)amino)piperidin-1-yl)prop-2-en-1-one] in this work.
